Experimental data published in PubChem BioAssay AID256 (DTP/NCI, 2004).
Several values for one entry are separate records, joined by “and”; a condition that tells them apart may be missing. Equal values may be shown once. Inconclusive results and toxic doses are left out.

System: CD2F1 mice, L1210 leukemia ip, survival T/C
Assay: NCI In Vivo Anticancer Drug Screen. Data for tumor model L1210 Leukemia (intraperitoneal) in CD2F1 (CDF1) mice
Details: higher = longer survival
How it was run: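 In this screen, transplantable tumors were grown in mice given either the compound or its vehicle. Results were expressed as the treated measurement relative to the control measurement.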

Q: Which results are given for `CO[C@@]12[C@H](COC(N)=O)C3=C(C(=O)C(C)=C(N)C3=O)N1C[C@@H]1N[C@@H]12`?
A: T/C (endpoint: mean survival time, dose: 0.25 mg/kg/injection, schedule: Q01DX009 (ip), vehicle: saline): 118 % of control and 121 % of control; T/C (endpoint: mean survival time, dose: 0.38 mg/kg/injection, schedule: Q01DX009 (ip), vehicle: water): 103 % of control; T/C (endpoint: mean survival time, dose: 0.4 mg/kg/injection, schedule: Q04DX003 (ip), vehicle: water): 111 % of control; T/C (endpoint: mean survival time, dose: 0.45 mg/kg/injection, schedule: Q01DX007 (ip), vehicle: acetone): 117 % of control; T/C (endpoint: mean survival time, dose: 0.5 mg/kg/injection, schedule: Q01DX009 (ip), vehicle: water): 113 % of control; T/C (endpoint: mean survival time, dose: 0.6 mg/kg/injection, schedule: Q01DX001 (ip), vehicle: carboxymethylcellulose (CMC)): 111 % of control; T/C (endpoint: mean survival time, dose: 0.65 mg/kg/injection, schedule: Q04DX003 (ip), vehicle: water): 111 % of control; T/C (endpoint: mean survival time, dose: 0.68 mg/kg/injection, schedule: Q01DX007 (ip), vehicle: acetone): 121 % of control; T/C (endpoint: mean survival time, dose: 0.68 mg/kg/injection, schedule: Q03DX004 (ip), vehicle: acetone): 119 % of control; T/C (endpoint: mean survival time, dose: 0.75 mg/kg/injection, schedule: Q01DX005 (ip), vehicle: clinical formulation): 120 % of control; T/C (endpoint: mean survival time, dose: 0.75 mg/kg/injection, schedule: Q01DX009 (ip), vehicle: water): 104 % of control; T/C (endpoint: mean survival time, dose: 0.87 mg/kg/injection, schedule: Q01DX001 (ip), vehicle: acetone): 110 % of control; T/C (endpoint: mean survival time, dose: 1.0 mg/kg/injection, schedule: Q01DX009 (ip), vehicle: water): 115 % of control; T/C (endpoint: mean survival time, dose: 1.0 mg/kg/injection, schedule: Q04DX003 (ip), vehicle: saline): 116 % of control; T/C (endpoint: mean survival time, dose: 1.1 mg/kg/injection, schedule: Q04DX003 (ip), vehicle: water): 119 % of control; T/C (endpoint: mean survival time, dose: 1.2 mg/kg/injection, schedule: Q01DX001 (ip), vehicle: carboxymethylcellulose (CMC)): 116 % of control; T/C (endpoint: mean survival time, dose: 1.5 mg/kg/injection, schedule: Q01DX001 (ip), vehicle: saline): 105 % of control; T/C (endpoint: mean survival time, dose: 1.5 mg/kg/injection, schedule: Q01DX005 (ip), vehicle: clinical formulation): 151 % of control; T/C (endpoint: mean survival time, dose: 1.55 mg/kg/injection, schedule: Q02DX005 (ip), vehicle: saline): 119 % of control; T/C (endpoint: mean survival time, dose: 1.55 mg/kg/injection, schedule: Q03DX004 (ip), vehicle: saline): 116 % of control; T/C (endpoint: mean survival time, dose: 1.55 mg/kg/injection, schedule: Q04DX003 (ip), vehicle: saline): 114 % of control; T/C (endpoint: mean survival time, dose: 1.55 mg/kg/injection, schedule: Q08DX002 (ip), vehicle: saline): 104 % of control; T/C (endpoint: mean survival time, dose: 1.75 mg/kg/injection, schedule: Q01DX001 (ip), vehicle: carboxymethylcellulose (CMC)): 110 % of control; T/C (endpoint: mean survival time, dose: 1.75 mg/kg/injection, schedule: Q01DX001 (ip), vehicle: saline): 120 % of control; T/C (endpoint: mean survival time, dose: 2.0 mg/kg/injection, schedule: Q01DX009 (ip), vehicle: water): 107 % of control; T/C (endpoint: mean survival time, dose: 2.0 mg/kg/injection, schedule: Q04DX003 (ip), vehicle: saline): 119 % of control; T/C (endpoint: mean survival time, dose: 2.3 mg/kg/injection, schedule: Q01DX001 (ip), vehicle: acetone): 150 % of control; T/C (endpoint: mean survival time, dose: 2.3 mg/kg/injection, schedule: Q01DX001 (ip), vehicle: carboxymethylcellulose (CMC)): 118 % of control and 111 % of control; T/C (endpoint: mean survival time, dose: 2.33 mg/kg/injection, schedule: Q02DX005 (ip), vehicle: saline): 119 % of control; T/C (endpoint: mean survival time, dose: 2.33 mg/kg/injection, schedule: Q03DX004 (ip), vehicle: saline): 123 % of control; T/C (endpoint: mean survival time, dose: 2.33 mg/kg/injection, schedule: Q04DX003 (ip), vehicle: saline): 121 % of control; T/C (endpoint: mean survival time, dose: 2.33 mg/kg/injection, schedule: Q08DX002 (ip), vehicle: saline): 111 % of control; T/C (endpoint: mean survival time, dose: 2.9 mg/kg/injection, schedule: Q01DX001 (ip), vehicle: saline): 124 % of control; T/C (endpoint: mean survival time, dose: 3.0 mg/kg/injection, schedule: Q01DX001 (ip), vehicle: saline): 124 % of control; T/C (endpoint: mean survival time, dose: 3.0 mg/kg/injection, schedule: Q01DX005 (ip), vehicle: clinical formulation): 113 % of control and 98 % of control; T/C (endpoint: mean survival time, dose: 3.0 mg/kg/injection, schedule: Q01DX009 (ip), vehicle: water): 101 % of control and 108 % of control; T/C (endpoint: mean survival time, dose: 3.0 mg/kg/injection, schedule: Q04DX003 (ip), vehicle: saline): 170 % of control; T/C (endpoint: mean survival time, dose: 3.5 mg/kg/injection, schedule: Q01DX001 (ip), vehicle: acetone): 156 % of control; T/C (endpoint: mean survival time, dose: 3.5 mg/kg/injection, schedule: Q01DX001 (ip), vehicle: carboxymethylcellulose (CMC)): 155 % of control; T/C (endpoint: mean survival time, dose: 3.5 mg/kg/injection, schedule: Q04DX003 (ip), vehicle: saline): 123 % of control; T/C (endpoint: mean survival time, dose: 3.5 mg/kg/injection, schedule: Q08DX002 (ip), vehicle: saline): 121 % of control; T/C (endpoint: mean survival time, dose: 4.5 mg/kg/injection, schedule: Q01DX001 (ip), vehicle: saline): 108 % of control; T/C (endpoint: mean survival time, dose: 4.7 mg/kg/injection, schedule: Q01DX001 (ip), vehicle: saline): 122 % of control; T/C (endpoint: mean survival time, dose: 5.0 mg/kg/injection, schedule: Q04DX003 (ip), vehicle: water): 150 % of control; T/C (endpoint: mean survival time, dose: 5.25 mg/kg/injection, schedule: Q01DX001 (ip), vehicle: carboxymethylcellulose (CMC)): 176 % of control; T/C (endpoint: mean survival time, dose: 5.25 mg/kg/injection, schedule: Q01DX004 (ip), vehicle: saline): 152 % of control; T/C (endpoint: mean survival time, dose: 5.25 mg/kg/injection, schedule: Q01DX005 (ip), vehicle: saline): 165 % of control; T/C (endpoint: mean survival time, dose: 7.0 mg/kg/injection, schedule: Q01DX003 (ip), vehicle: saline): 150 % of control; T/C (endpoint: mean survival time, dose: 7.0 mg/kg/injection, schedule: Q04DX003 (ip), vehicle: saline): 152 % of control; T/C (endpoint: mean survival time, dose: 8.3 mg/kg/injection, schedule: Q04DX003 (ip), vehicle: water): 119 % of control; T/C (endpoint: mean survival time, dose: 10.5 mg/kg/injection, schedule: Q01DX001 (ip), vehicle: carboxymethylcellulose (CMC)): 114 % of control; T/C (endpoint: mean survival time, dose: 12.0 mg/kg/injection, schedule: Q01DX001 (ip), vehicle: saline): 112 % of control; T/C (endpoint: median survival time, dose: 0.1 mg/kg/injection, schedule: Q01DX009 (ip), vehicle: saline): 192 % of control; T/C (endpoint: median survival time, dose: 0.1 mg/kg/injection, schedule: Q04DX003 (ip), vehicle: saline): 108 % of control; T/C (endpoint: median survival time, dose: 0.12 mg/kg/injection, schedule: Q01DX009 (ip), vehicle: Klucel (hydroxypropylcellulose) (HPC)): 102 % of control; T/C (endpoint: median survival time, dose: 0.2 mg/kg/injection, schedule: Q01DX009 (ip), vehicle: saline): 113 % of control; T/C (endpoint: median survival time, dose: 0.2 mg/kg/injection, schedule: Q04DX003 (ip), vehicle: saline): 107 % of control; T/C (endpoint: median survival time, dose: 0.25 mg/kg/injection, schedule: Q01DX009 (ip), vehicle: Klucel (hydroxypropylcellulose) (HPC)): 102 % of control; T/C (endpoint: median survival time, dose: 0.25 mg/kg/injection, schedule: Q01DX009 (ip), vehicle: saline): 109 % of control; T/C (endpoint: median survival time, dose: 0.25 mg/kg/injection, schedule: Q01DX009 (ip), vehicle: water): 115 % of control; T/C (endpoint: median survival time, dose: 0.4 mg/kg/injection, schedule: Q01DX001 (ip), vehicle: saline): 113 % of control; T/C (endpoint: median survival time, dose: 0.4 mg/kg/injection, schedule: Q01DX009 (ip), vehicle: saline): 124 % of control; T/C (endpoint: median survival time, dose: 0.4 mg/kg/injection, schedule: Q04DX003 (ip), vehicle: saline): 109 % of control; T/C (endpoint: median survival time, dose: 0.5 mg/kg/injection, schedule: Q01DX009 (ip), vehicle: Klucel (hydroxypropylcellulose) (HPC)): 104 % of control; T/C (endpoint: median survival time, dose: 0.5 mg/kg/injection, schedule: Q01DX009 (ip), vehicle: saline): 118 % of control; T/C (endpoint: median survival time, dose: 0.75 mg/kg/injection, schedule: Q01DX001 (ip), vehicle: saline): 115 % of control; T/C (endpoint: median survival time, dose: 0.8 mg/kg/injection, schedule: Q01DX001 (ip), vehicle: saline): 112 % of control; T/C (endpoint: median survival time, dose: 0.8 mg/kg/injection, schedule: Q04DX003 (ip), vehicle: saline): 124 % of control; T/C (endpoint: median survival time, dose: 1.0 mg/kg/injection, schedule: Q01DX009 (ip), vehicle: Klucel (hydroxypropylcellulose) (HPC)): 116 % of control; T/C (endpoint: median survival time, dose: 1.6 mg/kg/injection, schedule: Q01DX009 (ip), vehicle: saline): 165 % of control; T/C (endpoint: median survival time, dose: 1.8 mg/kg/injection, schedule: Q01DX001 (ip), vehicle: water): 116 % of control and 102 % of control and 105 % of control; T/C (endpoint: median survival time, dose: 2.4 mg/kg/injection, schedule: Q03DX003 (ip), vehicle: saline): 118 % of control and 203 % of control; T/C (endpoint: median survival time, dose: 3.2 mg/kg/injection, schedule: Q01DX009 (ip), vehicle: saline): 96 % of control; T/C (endpoint: median survival time, dose: 3.2 mg/kg/injection, schedule: Q04DX003 (ip), vehicle: saline): 168 % of control; T/C (endpoint: median survival time, dose: 3.6 mg/kg/injection, schedule: Q01DX001 (ip), vehicle: saline): 155 % of control and 160 % of control; T/C (endpoint: median survival time, dose: 4.0 mg/kg/injection, schedule: Q01DX009 (ip), vehicle: saline): 97 % of control; T/C (endpoint: median survival time, dose: 4.8 mg/kg/injection, schedule: Q01DX001 (ip), vehicle: saline): 166 % of control; T/C (endpoint: median survival time, dose: 4.8 mg/kg/injection, schedule: Q03DX003 (ip), vehicle: saline): 190 % of control; T/C (endpoint: median survival time, dose: 5.0 mg/kg/injection, schedule: Q01DX001 (ip), vehicle: water): 113 % of control and 115 % of control; T/C (endpoint: median survival time, dose: 5.4 mg/kg/injection, schedule: Q01DX001 (ip), vehicle: saline): 166 % of control; T/C (endpoint: median survival time, dose: 6.0 mg/kg/injection, schedule: Q01DX009 (ip), vehicle: clinical formulation): 98 % of control; T/C (endpoint: median survival time, dose: 6.4 mg/kg/injection, schedule: Q01DX001 (ip), vehicle: saline): 156 % of control; T/C (endpoint: median survival time, dose: 8.0 mg/kg/injection, schedule: Q01DX001 (ip), vehicle: saline): 156 % of control and 172 % of control; T/C (endpoint: median survival time, dose: 8.3 mg/kg/injection, schedule: Q01DX001 (ip), vehicle: water): 123 % of control
